Assay results published in patent US11932609B1 (priority 2023, dated 2024).

System: multidrug-resistant (MDR) strains of Mycobacterium tuberculosis
Type: cell-based
Settings: MDR-TB, drug resistance at least to isoniazid and rifampicin; REMA, Middlebrook 7H9 broth, 8 days at 37° C. plus overnight with resazurin

| SMILES | Anti-tubercular activity against Mycobacterium tuberculosis MDR (MIC) |
| --- | --- |
| CCOC(=O)C1=C(C)NC(Nc2ccc(Br)cc2C#N)=NC1c1ccc(F)cc1 (centres unmarked) [DHPM-KNV6, Ethyl 2-((4-bromo-2-cyanophenyl)amino)-4-(4-fluorophenyl)-6-methyl-1,4-dihydropyrimidine-5-carboxylate] | No activity |
| CCOC(=O)C1=C(C)NC(Nc2ccccc2I)=NC1c1ccc(F)cc1 (centres unmarked) [DHPM-KNV8, Ethyl 4-(4-fluorophenyl)-2-((2-iodophenyl)amino)-6-methyl-1,4-dihydropyrimidine-5-carboxylate] | No activity |
